The text below walks through data of PMC5854708, “Grass Carp Prolactin Gene: Structural Characterization and Signal Transduction for PACAP-induced Prolactin Promoter Activity” (Scientific Reports, 2018).

Assay [1] concerns grass carp PRL promoter (pPRL(−1156).Luc) in αT3-1 cells. Type of assay: cell-based, grass carp (promoter); rat (αT3-1 cells, as printed). The conditions noted are these: 0.1–1000 nM, 24 hr, n = 4. Here is the method: The cells were then cultured for 18 hr recovery before drug treatment. (A) Time course analysis on the effect of oPACAP38 (6–48 hrs) on grass carp PRL promoter activity in αT3-1 cells. (B) αT3-1 cells over-expressed pPRL(−1156).LUC were treated for 24 hrs with increasing doses of oPACAP38. Effects of PACAP and VIP antagonists on PACAP-induced PRL mRNA expression were also investigated. In these experiments, αT3-1 cells over-expressed pPRL(−1156).LUC were challenged with oPACAP38 (10 nM, 24 hr) in the presence or absence of (C) the PACAP antagonist PACAP6-38 (10 nM) or (D) VIP antagonist (4-Cl-D-Phe6, Leu17)VIP (“VIP-R antagonist”, 100 nM).
After 18 h recovery, the cells were incubated with respective drugs. (A) αT3-1 cells over-expressed pPRL(−1156).LUC were treated for 24 hrs with increasing doses of cpt-cAMP (1–100 μM). (B) αT3-1 cells over-expressed pPRL(−1156).LUC were treated for 24 hrs with increasing doses of Forskolin (10–1000 nM). Effects of cAMP/PKA inhibitors on PACAP-induced PRL mRNA expression were then investigated. αT3-1 cells over-expressed pPRL(−1156).LUC were challenged with oPACAP38 (10 nM, 24 hr) in the presence or absence of (C) AC inhibitor MDL12330A (10 μM) or (D) PKA blocker H89 (10 μM).
After 18 h recovery, the cells were incubated with respective drugs. The cells were treated for 24 hr with increasing doses of (A) Ca^2+ ionophore A23187 or (B) L-type VSCC activator Bay K8644. Inhibiting extracellular Ca^2+ entry on PRL mRNA expression in carp pituitary cells was examined. In this study, αT3-1 cells over-expressed pPRL(−1156).LUC were treated with (C) oPACAP38 (10 nM, 24 hrs) or (D) Forskolin (100 nM, 24 hrs) in the Ca^2+-free medium (with different doses of EGTA).
After 18 h recovery, the cells were incubated with respective drugs.

For assay [2], the system named is PRL secretion / PRL mRNA in grass carp pituitary cells. The conditions noted are these: cited from earlier work. From the text: In carp model, PACAP nerve fibers can be identified in anterior pituitary overlapping with the distribution of lactotrophs. Furthermore, PAC1 receptors could be detected in grass carp lactotrophs.

With “pituitary adenylate cyclase-activating peptide [PACAP]”, in assay [1], the “concentration of maximal response, luciferase activity” value was determined as 1000 nM and the “dose dependence of luciferase activity expression” value is on record as “up-regulate luciferase activity expression in a dose-dependent manner”. For the same substance, in assay [1] (read-out: EC50 value, luciferase activity (PRL promoter activity)), the EC50 worked out at 4.5 nM. In addition, in assay [2], the “PRL mRNA expression” value is given as “up-regulated” and the PRL secretion result was “up-regulated”.
